Experimental data taken from PubChem BioAssay AID248 (DTP/NCI, 2004).
Several values for one entry are separate records, joined by “and”; a condition that tells them apart may be missing. Equal entries are not always repeated. Inconclusive results and toxic doses are left out. Cut-off read from the data, not from the text of the source: active = T/C of 150% or more; inactive = T/C below 125%.

System: L1210 leukemia ip in BDF1 mice, survival T/C
Assay: NCI In Vivo Anticancer Drug Screen. Data for tumor model L1210 Leukemia (intraperitoneal) in B6D2F1 (BDF1) mice
Conditions: higher = longer survival
Method in brief: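 Transplantable tumor model; survival measured in treated vs vehicle control mice. Value = treated/control.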

Measured: T/C

O=C1OC(C(O)CO)C(O)=C1O (configuration not stated)
inactive: endpoint: mean survival time, dose: 0.05 mg/kg/injection, schedule: Q01DX005 (iv), vehicle: saline 98 % of control | endpoint: mean survival time, dose: 0.05 mg/kg/injection, schedule: Q01DX009 (oral), vehicle: saline 102 % of control | endpoint: mean survival time, dose: 0.1 mg/kg/injection, schedule: Q01DX005 (iv), vehicle: saline 97 % of control | endpoint: mean survival time, dose: 0.1 mg/kg/injection, schedule: Q01DX009 (ip), vehicle: saline 95 % of control | endpoint: mean survival time, dose: 0.1 mg/kg/injection, schedule: Q01DX009 (oral), vehicle: saline 98 % of control | endpoint: mean survival time, dose: 0.1 mg/kg/injection, schedule: Q01DX009 (sc), vehicle: saline 98 % of control | endpoint: mean survival time, dose: 0.12 mg/kg/injection, schedule: Q01DX009 (ip), vehicle: saline 100 % of control | endpoint: mean survival time, dose: 0.13 mg/kg/injection, schedule: Q01DX009 (ip), vehicle: saline 100 % of control | endpoint: mean survival time, dose: 0.2 mg/kg/injection, schedule: Q01DX005 (iv), vehicle: saline 102 % of control | endpoint: mean survival time, dose: 0.2 mg/kg/injection, schedule: Q01DX009 (im), vehicle: saline 98 % of control | endpoint: mean survival time, dose: 0.2 mg/kg/injection, schedule: Q01DX009 (ip), vehicle: saline 101 % of control | endpoint: mean survival time, dose: 0.39 mg/kg/injection, schedule: Q01DX005 (iv), vehicle: saline 95 % of control | endpoint: mean survival time, dose: 0.39 mg/kg/injection, schedule: Q01DX009 (im), vehicle: saline 95 % of control | endpoint: mean survival time, dose: 0.39 mg/kg/injection, schedule: Q01DX009 (ip), vehicle: saline 95 % of control | endpoint: mean survival time, dose: 0.39 mg/kg/injection, schedule: Q01DX009 (oral), vehicle: saline 98 % of control | endpoint: mean survival time, dose: 0.5 mg/kg/injection, schedule: Q01DX001 (ip), vehicle: saline 97 % of control | endpoint: mean survival time, dose: 0.5 mg/kg/injection, schedule: Q01DX009 (ip), vehicle: saline 96 % of control and 101 % of control | endpoint: mean survival time, dose: 0.78 mg/kg/injection, schedule: Q01DX005 (iv), vehicle: saline 98 % of control | endpoint: mean survival time, dose: 0.78 mg/kg/injection, schedule: Q01DX009 (im), vehicle: saline 93 % of control | endpoint: mean survival time, dose: 0.78 mg/kg/injection, schedule: Q01DX009 (ip), vehicle: saline 102 % of control | endpoint: mean survival time, dose: 0.78 mg/kg/injection, schedule: Q01DX009 (oral), vehicle: saline 99 % of control | endpoint: mean survival time, dose: 1.0 mg/kg/injection, schedule: Q01DX001 (ip), vehicle: saline 100 % of control and 101 % of control | endpoint: mean survival time, dose: 1.0 mg/kg/injection, schedule: Q01DX009 (ip), vehicle: saline 95 % of control and 101 % of control | endpoint: mean survival time, dose: 1.56 mg/kg/injection, schedule: Q01DX005 (iv), vehicle: saline 98 % of control | endpoint: mean survival time, dose: 1.56 mg/kg/injection, schedule: Q01DX009 (im), vehicle: saline 100 % of control | endpoint: mean survival time, dose: 1.56 mg/kg/injection, schedule: Q01DX009 (ip), vehicle: saline 93 % of control | endpoint: mean survival time, dose: 1.56 mg/kg/injection, schedule: Q01DX009 (oral), vehicle: saline 94 % of control | endpoint: mean survival time, dose: 2.0 mg/kg/injection, schedule: Q01DX001 (ip), vehicle: saline 101 % of control and 103 % of control | endpoint: mean survival time, dose: 2.0 mg/kg/injection, schedule: Q01DX009 (ip), vehicle: saline 95 % of control and 97 % of control | endpoint: mean survival time, dose: 3.12 mg/kg/injection, schedule: Q01DX005 (iv), vehicle: saline 95 % of control | endpoint: mean survival time, dose: 3.12 mg/kg/injection, schedule: Q01DX009 (im), vehicle: saline 95 % of control | endpoint: mean survival time, dose: 3.12 mg/kg/injection, schedule: Q01DX009 (oral), vehicle: saline 93 % of control | endpoint: mean survival time, dose: 3.12 mg/kg/injection, schedule: Q01DX009 (sc), vehicle: saline 96 % of control | endpoint: mean survival time, dose: 4.0 mg/kg/injection, schedule: Q01DX001 (ip), vehicle: saline 101 % of control and 104 % of control | endpoint: mean survival time, dose: 4.0 mg/kg/injection, schedule: Q01DX009 (ip), vehicle: saline 94 % of control and 101 % of control | endpoint: mean survival time, dose: 6.25 mg/kg/injection, schedule: Q01DX009 (im), vehicle: saline 98 % of control | endpoint: mean survival time, dose: 6.25 mg/kg/injection, schedule: Q01DX009 (ip), vehicle: saline 95 % of control | endpoint: mean survival time, dose: 6.25 mg/kg/injection, schedule: Q01DX009 (oral), vehicle: saline 98 % of control | endpoint: mean survival time, dose: 6.25 mg/kg/injection, schedule: Q01DX009 (sc), vehicle: saline 102 % of control | endpoint: mean survival time, dose: 8.0 mg/kg/injection, schedule: Q01DX001 (ip), vehicle: saline 100 % of control | endpoint: mean survival time, dose: 8.0 mg/kg/injection, schedule: Q01DX009 (ip), vehicle: saline 95 % of control and 97 % of control | endpoint: mean survival time, dose: 12.5 mg/kg/injection, schedule: Q01DX009 (im), vehicle: saline 100 % of control | endpoint: mean survival time, dose: 12.5 mg/kg/injection, schedule: Q01DX009 (ip), vehicle: saline 102 % of control | endpoint: mean survival time, dose: 12.5 mg/kg/injection, schedule: Q01DX009 (oral), vehicle: saline 100 % of control | endpoint: mean survival time, dose: 12.5 mg/kg/injection, schedule: Q01DX009 (sc), vehicle: saline 94 % of control | endpoint: mean survival time, dose: 16.0 mg/kg/injection, schedule: Q01DX001 (ip), vehicle: saline 94 % of control | endpoint: mean survival time, dose: 16.0 mg/kg/injection, schedule: Q01DX009 (ip), vehicle: saline 101 % of control | endpoint: mean survival time, dose: 25.0 mg/kg/injection, schedule: Q01DX009 (ip), vehicle: saline 95 % of control | endpoint: mean survival time, dose: 25.0 mg/kg/injection, schedule: Q01DX009 (sc), vehicle: saline 102 % of control | endpoint: mean survival time, dose: 32.0 mg/kg/injection, schedule: Q01DX001 (ip), vehicle: saline 97 % of control | endpoint: mean survival time, dose: 32.0 mg/kg/injection, schedule: Q01DX009 (ip), vehicle: saline 103 % of control | endpoint: mean survival time, dose: 37.5 mg/kg/injection, schedule: Q01DX009 (ip), vehicle: saline 98 % of control | endpoint: mean survival time, dose: 50.0 mg/kg/injection, schedule: Q01DX005 (iv), vehicle: saline 102 % of control | endpoint: mean survival time, dose: 50.0 mg/kg/injection, schedule: Q01DX009 (im), vehicle: saline 96 % of control | endpoint: mean survival time, dose: 50.0 mg/kg/injection, schedule: Q01DX009 (ip), vehicle: saline 96 % of control | endpoint: mean survival time, dose: 50.0 mg/kg/injection, schedule: Q01DX009 (oral), vehicle: saline 100 % of control | endpoint: mean survival time, dose: 64.0 mg/kg/injection, schedule: Q01DX001 (ip), vehicle: saline 97 % of control and 101 % of control | endpoint: mean survival time, dose: 100.0 mg/kg/injection, schedule: Q01DX001 (ip), vehicle: saline 96 % of control | endpoint: mean survival time, dose: 100.0 mg/kg/injection, schedule: Q01DX005 (iv), vehicle: saline 97 % of control | endpoint: mean survival time, dose: 100.0 mg/kg/injection, schedule: Q01DX009 (im), vehicle: saline 96 % of control | endpoint: mean survival time, dose: 100.0 mg/kg/injection, schedule: Q01DX009 (ip), vehicle: saline 93 % of control and 98 % of control | endpoint: mean survival time, dose: 100.0 mg/kg/injection, schedule: Q01DX009 (oral), vehicle: saline 103 % of control | endpoint: mean survival time, dose: 100.0 mg/kg/injection, schedule: Q04DX003 (ip), vehicle: saline 96 % of control | endpoint: mean survival time, dose: 150.0 mg/kg/injection, schedule: Q03HX024 (ip), vehicle: saline 93 % of control | endpoint: mean survival time, dose: 200.0 mg/kg/injection, schedule: Q01DX001 (ip), vehicle: saline 104 % of control | endpoint: mean survival time, dose: 200.0 mg/kg/injection, schedule: Q01DX005 (iv), vehicle: saline 102 % of control | endpoint: mean survival time, dose: 200.0 mg/kg/injection, schedule: Q01DX009 (im), vehicle: saline 98 % of control | endpoint: mean survival time, dose: 200.0 mg/kg/injection, schedule: Q01DX009 (ip), vehicle: saline 101 % of control | endpoint: mean survival time, dose: 200.0 mg/kg/injection, schedule: Q01DX009 (oral), vehicle: saline 96 % of control | endpoint: mean survival time, dose: 300.0 mg/kg/injection, schedule: Q01DX009 (ip), vehicle: saline 97 % of control | endpoint: mean survival time, dose: 400.0 mg/kg/injection, schedule: Q01DX001 (ip), vehicle: saline 93 % of control | endpoint: mean survival time, dose: 400.0 mg/kg/injection, schedule: Q01DX005 (iv), vehicle: saline 101 % of control | endpoint: mean survival time, dose: 400.0 mg/kg/injection, schedule: Q01DX009 (im), vehicle: saline 102 % of control | endpoint: mean survival time, dose: 400.0 mg/kg/injection, schedule: Q01DX009 (ip), vehicle: saline 93 % of control and 95 % of control and 102 % of control | endpoint: mean survival time, dose: 400.0 mg/kg/injection, schedule: Q01DX009 (oral), vehicle: saline 98 % of control | endpoint: mean survival time, dose: 800.0 mg/kg/injection, schedule: Q01DX001 (ip), vehicle: saline 94 % of control | endpoint: mean survival time, dose: 800.0 mg/kg/injection, schedule: Q01DX005 (iv), vehicle: saline 98 % of control | endpoint: mean survival time, dose: 800.0 mg/kg/injection, schedule: Q01DX009 (im), vehicle: saline 93 % of control | endpoint: mean survival time, dose: 800.0 mg/kg/injection, schedule: Q01DX009 (oral), vehicle: saline 94 % of control | endpoint: mean survival time, dose: 1200.0 mg/kg/injection, schedule: Q01DX001 (ip), vehicle: saline 100 % of control | endpoint: mean survival time, dose: 1600.0 mg/kg/injection, schedule: Q01DX001 (ip), vehicle: saline 100 % of control | endpoint: mean survival time, dose: 1600.0 mg/kg/injection, schedule: Q01DX009 (im), vehicle: saline 98 % of control | endpoint: mean survival time, dose: 1600.0 mg/kg/injection, schedule: Q01DX009 (oral), vehicle: saline 96 % of control | endpoint: median survival time, dose: 500.0 mg/kg/injection, schedule: Q01DX001 (oral), vehicle: water 100 % of control | endpoint: median survival time, dose: 1000.0 mg/kg/injection, schedule: Q01DX001 (oral), vehicle: water 100 % of control | endpoint: median survival time, dose: 1500.0 mg/kg/injection, schedule: Q01DX001 (oral), vehicle: water 94 % of control | endpoint: median survival time, dose: 3000.0 mg/kg/injection, schedule: Q01DX001 (oral), vehicle: water 100 % of control
